The data set can be described thus: Skin binding experiment (pig ear skin, THF extraction, HPLC recovery). In kind it is in vitro ADME. Particulars: for % UV filter bound to the skin: 2% (w) THF solution applied topically at 1 mg/cm^2, 32±1° C., duplicates. The method, then: The skin binding properties were determined by the following experiment. Skin samples (1 cm^2 each) were prepared by punching out from pig ear. The skin samples were placed in a 2 mL eppendorf plastic tube. The studied compounds were applied topically as a 2% (w) THF solution on the skin surface at a mean dose rate of 1 mg/cm^2. The samples were placed in a heatingblock and maintained at a normal skin temperature of 32±1° C. for the duration of the exposure period. At the end of the experiment, after 24 hours, respectively 72 h, each skin probe was extracted by shaking with 1000 μl of THF for 1 min and the resulting solution was analyzed by HPLC. The experiments were run in duplicates.
Compounds B and was tested for their skin-binding capacity, while compound A (described in Kawashita, Y; Nakamichi, N.; Kawabata, H.; Hayashi, M. Org. Lett. 2003, 5, 3713-3715) was used as a non-binding reference.
Skin fraction samples were injected into the HPLC system using DAD detection with the following conditions:
The % of UV filter bound to the skin was determined by calculation of the recovery rate using the following equation: […]

This is an account of results in patent publication US8278459B2, “UV-filter compounds” (DSM IP Assets B.V., priority 2007, dated 2012).

Consider `Cc1ccc(-c2nc3ccccc3o2)cc1` [Compound A, reference compound], for which the “% UV filter bound to the skin” value reads like this: (After 24 h) 36.3%; (After 72 h) 61.1%.

Take `O=C(CO)C(O)C(O)c1ccc(-c2nc3ccccc3o2)cc1` (centres unmarked) [Compound B, 4-(4-Benzoxazol-2-yl-phenyl)-1,3,4-trihydroxy-butan-2-one]: the “% UV filter bound to the skin” value runs as follows: (After 24 h) 96.6%; (After 72 h) 100%. Also, the “adhesion to the skin (in words)” value (compared to the non-binding compound A) is reported as “significant adhesion to the skin”.
